Measured values taken from the NIST ThermoML archive (doi:10.1021/acs.jced.8b01157).
± gives the expanded uncertainty stated by the source.

Experiment: mn = molality of the nth substance listed, in mol/kg
Details: 100 kPa, Liquid; for speed of sound: Frequency=3 MHz, Single path-length method; for mass density: Vibrating tube method

N.O=P(O)(O)O [ammonium dihydrogen phosphate] + O
Details	mass density, 288.15 K [kg/m3]	mass density, 298.15 K [kg/m3]	mass density, 308.15 K [kg/m3]	mass density, 318.15 K [kg/m3]	speed of sound, 288.15 K [m/s]	speed of sound, 298.15 K [m/s]	speed of sound, 308.15 K [m/s]	speed of sound, 318.15 K [m/s]
m1 = 0.5	1030 ± 1.1	1026.45 ± 1.1	1023.33 ± 1.1	1019.74 ± 1.1	1507.3 ± 2.2	1534.9 ± 2.1	1555.9 ± 2.1	1570.9 ± 2.1
m1 = 1	1057.62 ± 1.5	1054.22 ± 1.5	1050.98 ± 1.5	1046.48 ± 1.4	1544.3 ± 2.5	1569.7 ± 2.4	1588.9 ± 2.4	1602.6 ± 2.4
m1 = 1.5	1082.56 ± 1.8	1079.6 ± 1.8	1075.85 ± 1.8	1071.76 ± 1.8	1579 ± 2.9	1602.4 ± 2.7	1619.9 ± 2.7	1631.1 ± 2.7

N.N.O=P(O)(O)O [diammonium hydrogen phosphate] + O
Details	mass density, 288.15 K [kg/m3]	mass density, 298.15 K [kg/m3]	mass density, 308.15 K [kg/m3]	mass density, 318.15 K [kg/m3]	speed of sound, 288.15 K [m/s]	speed of sound, 298.15 K [m/s]	speed of sound, 308.15 K [m/s]	speed of sound, 318.15 K [m/s]
m1 = 0.5	1032.61 ± 1.2	1030.71 ± 1.2	1026.1 ± 1.2	1022.85 ± 1.2	1517.7 ± 2.3	1544.3 ± 2.3	1564.8 ± 2.3	1581.3 ± 2.2
m1 = 1	1066.4 ± 1.6	1064.03 ± 1.6	1060.22 ± 1.6	1055.59 ± 1.6	1572 ± 3	1597.9 ± 2.9	1614.1 ± 2.8	1628.3 ± 2.8
m1 = 1.5	1097.53 ± 2.1	1095.18 ± 2.1	1090.11 ± 2.1	1086.19 ± 2.1	1629.6 ± 4	1650.4 ± 3.6	1664.4 ± 3.6	1676.6 ± 3.5
